Legend:
Acetylcholinesterase = Acetylcholinesterase (Electrophorus electricus, UniProt O42275)
Description: Inhibition of electric eel AChE using acetylthiocholine iodide as substrate after 2 mins by Ellman's method

[1] = Selectivity ratio of IC50 for equine serum BChE to IC50 for electric eel AChE
Cholinesterase = Cholinesterase (Equus caballus, UniProt P81908); test: Inhibition of equine serum BChE using butyrylthiocholine iodide as substrate after 2 mins by Ellman's method
Cholinesterase, sequence (P81908 whole entry): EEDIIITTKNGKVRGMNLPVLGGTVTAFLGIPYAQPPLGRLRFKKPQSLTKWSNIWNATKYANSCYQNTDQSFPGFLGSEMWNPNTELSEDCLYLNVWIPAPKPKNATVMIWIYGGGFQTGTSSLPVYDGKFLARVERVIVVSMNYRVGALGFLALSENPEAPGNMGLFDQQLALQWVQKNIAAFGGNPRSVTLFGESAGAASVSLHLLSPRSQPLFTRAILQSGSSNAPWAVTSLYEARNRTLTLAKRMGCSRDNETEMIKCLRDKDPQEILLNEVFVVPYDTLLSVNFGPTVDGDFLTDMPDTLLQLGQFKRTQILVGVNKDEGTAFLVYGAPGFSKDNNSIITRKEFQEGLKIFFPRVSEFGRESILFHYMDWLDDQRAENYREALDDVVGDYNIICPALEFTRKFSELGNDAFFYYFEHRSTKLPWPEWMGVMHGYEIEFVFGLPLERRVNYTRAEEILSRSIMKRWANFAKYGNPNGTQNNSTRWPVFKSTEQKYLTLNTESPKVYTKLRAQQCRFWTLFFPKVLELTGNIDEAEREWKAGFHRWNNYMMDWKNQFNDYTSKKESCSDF

Acetylcholinesterase, sequence (O42275 whole entry): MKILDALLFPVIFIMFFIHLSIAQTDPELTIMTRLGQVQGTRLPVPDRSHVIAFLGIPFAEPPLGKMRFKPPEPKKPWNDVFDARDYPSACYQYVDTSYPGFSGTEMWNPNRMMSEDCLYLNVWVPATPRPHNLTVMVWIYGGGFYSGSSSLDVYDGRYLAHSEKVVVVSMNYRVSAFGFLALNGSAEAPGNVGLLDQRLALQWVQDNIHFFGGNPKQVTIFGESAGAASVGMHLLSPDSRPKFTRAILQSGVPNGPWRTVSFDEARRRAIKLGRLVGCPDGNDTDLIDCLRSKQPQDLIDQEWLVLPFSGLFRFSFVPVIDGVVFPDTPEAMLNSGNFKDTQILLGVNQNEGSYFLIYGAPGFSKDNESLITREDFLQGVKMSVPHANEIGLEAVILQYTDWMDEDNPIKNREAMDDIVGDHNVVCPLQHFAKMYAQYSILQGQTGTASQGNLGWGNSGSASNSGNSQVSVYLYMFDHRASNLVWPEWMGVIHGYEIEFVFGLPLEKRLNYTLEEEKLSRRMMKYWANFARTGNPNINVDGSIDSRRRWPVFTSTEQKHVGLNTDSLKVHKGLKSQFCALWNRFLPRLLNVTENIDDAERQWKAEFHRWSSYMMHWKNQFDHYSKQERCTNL

For `N#CC1=C(N)Oc2c(c(=O)oc3ccccc23)C1c1ccc[n+](Cc2ccccc2F)c1` (stereo not given), the IC50 (Acetylcholinesterase) was 1800 nM, the Ratio IC50 [1] was 22.8 and the IC50 (Cholinesterase) was 41000 nM.
Work on `N#CC1=C(N)Oc2c(c(=O)oc3ccccc23)C1c1ccc[n+](Cc2cccc(Cl)c2)c1` (stereo not given) yielded an IC50 (Acetylcholinesterase) of 7400 nM, a Ratio IC50 [1] of 5.2 and an IC50 (Cholinesterase) of 38400 nM.
Compound `N#CC1=C(N)Oc2c(c(=O)oc3ccccc23)C1c1cc[n+](Cc2cccc(F)c2)cc1` (stereo not given) has an IC50 (Acetylcholinesterase) of 2800 nM, a Ratio IC50 [1] greater than 17.8 and an IC50 (Cholinesterase) greater than 50000 nM.
Work on `N#CC1=C(N)Oc2c(c(=O)oc3ccccc23)C1c1cc[n+](Cc2ccc(Cl)c(Cl)c2)cc1` (stereo not given) yielded an IC50 (Acetylcholinesterase) of 44 nM, a Ratio IC50 [1] of 28.9 and an IC50 (Cholinesterase) of 1270 nM.
With `N#CC1=C(N)Oc2c(c(=O)oc3ccccc23)C1c1ccc[n+](Cc2ccc(F)cc2)c1` (stereo not given) the IC50 (Acetylcholinesterase) was 2170 nM, the Ratio IC50 [1] was 1 and the IC50 (Cholinesterase) was 2170 nM.
For `Cc1cccc(C[n+]2cccc(C3C(C#N)=C(N)Oc4c3c(=O)oc3ccccc43)c2)c1` (stereo not given), the IC50 (Acetylcholinesterase) was 790 nM, the Ratio IC50 [1] was 18.1 and the IC50 (Cholinesterase) was 14300 nM.
For `Cc1cccc(C[n+]2ccc(C3C(C#N)=C(N)Oc4c3c(=O)oc3ccccc43)cc2)c1` (stereo not given), the IC50 (Acetylcholinesterase) was 1900 nM, the Ratio IC50 [1] was 2.6 and the IC50 (Cholinesterase) was 5500 nM.
In the case of `N#CC1=C(N)Oc2c(c(=O)oc3ccccc23)C1c1cc[n+](Cc2ccc(F)cc2)cc1` (stereo not given), the IC50 (Acetylcholinesterase) is reported as 38 nM, the Ratio IC50 [1] is reported as 48.4 and the IC50 (Cholinesterase) is reported as 1840 nM.
In the case of `N#CC1=C(N)Oc2c(c(=O)oc3ccccc23)C1c1ccc[n+](Cc2cccc(F)c2)c1` (stereo not given), the IC50 (Acetylcholinesterase) is reported as 2000 nM, the Ratio IC50 [1] is reported as greater than 25 and the IC50 (Cholinesterase) is reported as greater than 50000 nM.
`N#CC1=C(N)Oc2c(c(=O)oc3ccccc23)C1c1cc[n+](Cc2cccc(Cl)c2)cc1` (stereo not given) gave an IC50 (Acetylcholinesterase) of 480 nM, a Ratio IC50 [1] of 45.4 and an IC50 (Cholinesterase) of 21800 nM.
In the case of `N#CC1=C(N)Oc2c(c(=O)oc3ccccc23)C1c1cc[n+](Cc2ccccc2F)cc1` (stereo not given), the IC50 (Acetylcholinesterase) is reported as 2900 nM, the Ratio IC50 [1] is reported as 12.4 and the IC50 (Cholinesterase) is reported as 36000 nM.
`N#CC1=C(N)Oc2c(c(=O)oc3ccccc23)C1c1ccc[n+](Cc2ccccc2Cl)c1` (stereo not given) showed an IC50 (Acetylcholinesterase) of 1000 nM, a Ratio IC50 [1] of 11.2 and an IC50 (Cholinesterase) of 11200 nM.
`Cc1ccccc1C[n+]1ccc(C2C(C#N)=C(N)Oc3c2c(=O)oc2ccccc32)cc1` (stereo not given) showed an IC50 (Acetylcholinesterase) of 3700 nM, a Ratio IC50 [1] of 4.8 and an IC50 (Cholinesterase) of 17800 nM.
For `N#CC1=C(N)Oc2c(c(=O)oc3ccccc23)C1c1cc[n+](Cc2ccc(Cl)cc2Cl)cc1` (stereo not given), the IC50 (Acetylcholinesterase) was 831 nM, the Ratio IC50 [1] was 0.68 and the IC50 (Cholinesterase) was 566 nM.
Compound `N#CC1=C(N)Oc2c(c(=O)oc3ccccc23)C1c1cc[n+](Cc2ccccc2Cl)cc1` (stereo not given) has an IC50 (Acetylcholinesterase) of 1500 nM, a Ratio IC50 [1] of 3.2 and an IC50 (Cholinesterase) of 4800 nM.

— ChEMBL document CHEMBL2424537, “Design, synthesis, biological evaluation and docking study of 5-oxo-4,5-dihydropyrano[3,2-c]chromene derivatives as acetylcholinesterase and butyrylcholinesterase inhibitors” (Eur J Med Chem, 2013)
